These results are taken from PMC3479139, “Diverse Small Molecule Inhibitors of Human Apurinic/Apyrimidinic Endonuclease APE1 Identified from a Screen of a Large Public Collection” (PLoS ONE, 2012).

The term IC50 denotes the concentration that inhibits the measured activity by half.

The target of assay [1] is T1, APE1 (Homo sapiens, UniProt P27695).
T1 construct: made in house
The assay is described as follows: Gel-based radiotracer (32P) APE1 incision assay.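 Further: APE1 incision reactions ran 5 min at 37 °C, with cleaved product and intact substrate resolved electrophoretically.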 In kind it is biochemical. Also noted: concentration or dose not given beside the values. As to conditions: percent incision shown; entries 1-112.

For assay [2], the target named is T2, E. coli Endo IV (Escherichia coli, UniProt P0A6C1).
T2 construct: made in house
The assay is described as follows: E. coli Endo IV profiling counterscreen.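 On all read-outs here: selectivity counterscreen of candidate APE1 inhibitors against the bacterial endonuclease Endo IV, run in the same assay format as the primary APE1 high-throughput screen.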 As to conditions: for IC50: read-out: EndoIV IC50. It is filed as biochemical. Background: A counterscreen serves to expose hits that act by an unwanted route or on another target.
Source text: In order to screen out nonselective compounds, such as non-specific DNA binders and inhibitors of related enzymes, we used a miniaturized ThO DNA displacement assay and a counterscreen against the bacterial endonuclease E. coli Endo IV, respectively, following the previously published protocols [21].
To probe the selectivity of the candidate APE1 inhibitors, we tested them against E. coli EndoIV [36], employing the same assay as used in the HTS.

For assay [3], the target named is T1, APE1. The assay is described as follows: Fluorescence polarization (FP) displacement assay of APE1 binding to AP-DNA probe.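 Further: TAMRA 5′-labeled duplex DNA with THF abasic site (5 nM) and APE1 (20 nM), Mg2+-free buffer, 15 min at room temperature, inhibition seen as lowered polarization.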 As to conditions: read-out: FP IC50. In general terms: Fluorescence polarisation rises when a labelled molecule tumbles more slowly, as on binding a larger partner.
Procedure: Double-stranded oligodeoxynucleotide containing tetrahydrofuran (THF) abasic site labeled with TAMRA at the 5′-end was used as the labeled binding probe. Inhibition of APE1 binding to labeled probe was detected by a decrease in the fluorescence polarization (FP) of the fluorophore. Briefly, 4 µL mixture of 20 nM APE1 and 5 nM probe contained in the enzymatic assay buffer from which Mg^2+ was omitted, was dispensed into 1536-well Greiner black solid bottom plates. Compounds (23 nL) were transferred via pintool, and after a 15-minute incubation at room temperature, fluorescence polarization was measured in a ViewLux High-throughput CCD imager (480 nm excitation and 540 nm emission) to determine the degree of probe displacement caused by the test compounds.
Assay [4] concerns the target double-stranded 17-mer DNA fragment. The assay is described as follows: ThO (Thiazole Orange) DNA displacement assay.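 Further: miniaturized displacement of the intercalating dye from unlabeled duplex DNA, used to flag nonspecific DNA binders, chiefly intercalators, groove binders may be missed.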 In kind it is binding. As to conditions: read-out: ThO-DNA binding IC50.
For assay [5], the target named is T1, APE1. The assay is described as follows: Fluorogenic kinetic qHTS APE1 incision assay (primary screen and retest of cherrypicked samples).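 Further: purified APE1 cleaving a fluorophore/dark-quencher labelled 17-mer duplex DNA bearing a tetrahydrofuran AP site, fluorescence rise followed kinetically over the first 2 min, inhibition normalized to controls.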 It is filed as biochemical.
Where [6] appears, read: initial quantitative high-throughput screen, read-out: APE1 qHTS IC50.
The mark [7] stands for this setting: retest of cherrypicked sample, read-out: APE1 Retest IC50.

T1 sequence (P27695 whole entry): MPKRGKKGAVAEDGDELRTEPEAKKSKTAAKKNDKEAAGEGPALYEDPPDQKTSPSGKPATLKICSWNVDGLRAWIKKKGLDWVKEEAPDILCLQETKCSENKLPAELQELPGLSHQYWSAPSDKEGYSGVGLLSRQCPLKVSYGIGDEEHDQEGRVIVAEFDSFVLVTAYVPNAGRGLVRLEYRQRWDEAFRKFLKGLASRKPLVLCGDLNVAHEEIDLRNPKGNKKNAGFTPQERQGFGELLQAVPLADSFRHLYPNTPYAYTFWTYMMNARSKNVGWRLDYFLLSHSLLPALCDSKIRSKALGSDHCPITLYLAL

On to `Cc1ccccc1N=C1NC(=O)/C(=C/c2cccn2-c2cccc(C(=O)O)c2)S1` [MLS000704580], for which the “Radiotracer Assay (%Activity)” value in assay [1] stood at 7%. Further, the IC50 in assay [2] is over 57 µM; in assay [3] it was over 57 µM; in assay [4] it was over 57 µM; in assay [5] (setting [6]) it was 17.8 µM; in assay [5] (setting [7]), 11.2 µM.
As to `Cc1ccc2c(=O)c3ccccc3n(CCCN)c2c1C` [NCGC00161415], the “Radiotracer Assay (%Activity)” value in assay [1] was found to be 4.6%. Besides, the “Concentration response against EndoIV” value in assay [2] was “complete concentration response curves”. In addition, the IC50 in assay [3] worked out at 1.3 µM; in assay [4] it was 14.1 µM; in assay [5] (setting [6]), 4.5 µM; in assay [5] (setting [7]), 10 µM.
On to `O=C(OCC1O[C@@H](OC(=O)c2cc(O)c(O)c(O)c2)[C@@H](OC(=O)c2cc(O)c(O)c(O)c2)[C@@H](OC(=O)c2cc(O)c(O)c(O)c2)[C@@H]1OC(=O)c1cc(O)c(O)c(O)c1)c1cc(O)c(O)c(O)c1` (stereo partly shown) [MLS000574902], for which, in assay [1], the “Radiotracer Assay (%Activity)” value was found to be 8%. Moreover, the IC50 in assay [2] was over 57 µM; in assay [3], over 57 µM; in assay [4], 4 µM; in assay [5] (setting [6]) it was 0.01 µM; in assay [5] (setting [7]) it was 0.006 µM.
`O=C(CSc1nc(-c2ccc(F)cc2)nc2c1Cc1ccccc1O2)Nc1ccc(C(=O)O)cc1` [MLS000673045]: in assay [1], the “Radiotracer Assay (%Activity)” value was 36%. For the same compound, the IC50 in assay [2] was 14.1 µM; in assay [3], over 57 µM; in assay [4], 3.2 µM; in assay [5] (setting [6]) it was 12.6 µM; in assay [5] (setting [7]), 4.5 µM.
Take `O=C(O)c1cccc(-c2ccc(/C=c3/sc4nc5ccccc5n4c3=O)o2)c1` [MLS000777053]: in assay [1], the “Radiotracer Assay (%Activity)” value came out at 23%. Further, the IC50 in assay [2] is over 57 µM; in assay [3], 7.9 µM; in assay [4] it was 6.3 µM; in assay [5] (setting [6]) it was 10 µM; in assay [5] (setting [7]) it was 5 µM.
As for `N#Cc1ccccc1CN1C(=O)S/C(=C/c2cccn2-c2cccc(C(=O)O)c2)C1=O` [MLS000539676], the “Radiotracer Assay (%Activity)” value in assay [1] was 25%. The IC50 in assay [2] was over 57 µM; in assay [3], over 57 µM; in assay [4] it was over 57 µM; in assay [5] (setting [6]) it was 19.9 µM; in assay [5] (setting [7]), 14.1 µM.
As to `O=C(NC1CC1)c1cc(-c2ccco2)nc2ccccc12` [MLS001005620], the “Radiotracer Assay (%Activity)” value in assay [1] worked out at 17%. Also, the IC50 in assay [2] was over 57 µM; in assay [3] it was over 57 µM; in assay [4] it was over 57 µM; in assay [5] (setting [6]) it was 11.2 µM; in assay [5] (setting [7]), 4.4 µM.
For the compound `COc1cc(/C=N/Nc2ccc(C(=O)O)cc2)ccc1O` [MLS000685676], the “Radiotracer Assay (%Activity)” value in assay [1] amounted to 50%. Besides, the IC50 in assay [2] is over 57 µM; in assay [3] it was over 57 µM; in assay [4] it was over 57 µM; in assay [5] (setting [6]), 14.1 µM; in assay [5] (setting [7]), 14.1 µM.
Consider `O=C(O)c1ccc(N2C(=O)c3cccc4c(C(=O)O)ccc(c34)C2=O)cc1` [MLS000713642], for which the “Radiotracer Assay (%Activity)” value in assay [1] is on record as 28%. Also, the IC50 in assay [2] is over 57 µM; in assay [3], 15.8 µM; in assay [4], over 57 µM; in assay [5] (setting [6]), 12.6 µM; in assay [5] (setting [7]), 7.9 µM.
With `CC1(CC(=O)N/N=C/c2cc([N+](=O)[O-])c(O)cc2O)OCCO1` [MLS000548032], the “Radiotracer Assay (%Activity)” value in assay [1] was 13%. In addition, the IC50 in assay [2] was over 57 µM; in assay [3], over 57 µM; in assay [4] it was over 57 µM; in assay [5] (setting [6]), 14.1 µM; in assay [5] (setting [7]), 12.6 µM.
In the case of `Cc1cc(/C=C2\C(=O)NC(=O)N(Cc3ccco3)C2=O)c(C)n1-c1ccc(C(=O)O)cc1` [MLS000807042], the “Radiotracer Assay (%Activity)” value in assay [1] amounted to 33%. Further, the IC50 was over 57 µM in assay [2]; over 57 µM in assay [3]; over 57 µM in assay [4]; 1.1 µM in assay [5] (setting [6]); 14.1 µM in assay [5] (setting [7]).
In the case of `Cc1ccc(NC(=O)CN2C(=O)S/C(=C/c3ccc(-c4cc(C(=O)O)ccc4C)o3)C2=O)cc1C` [MLS000530771], the “Radiotracer Assay (%Activity)” value in assay [1] came to 21%. In addition, the IC50 in assay [2] is over 57 µM; in assay [3] it was 10 µM; in assay [4] it was over 57 µM; in assay [5] (setting [6]) it was 19.9 µM; in assay [5] (setting [7]) it was 7.1 µM.
On to `O=C(Nc1ccc2nc(-c3ccco3)c(-c3ccco3)nc2c1)N1CCCCCC1` [MLS000050353], for which the “Radiotracer Assay (%Activity)” value in assay [1] is given as 41%. The IC50 in assay [2] is 15.8 µM; in assay [3], 12.6 µM; in assay [4] it was over 57 µM; in assay [5] (setting [6]) it was 3.5 µM; in assay [5] (setting [7]), 4 µM.
As to `CCOC(=O)c1cc(-c2ccc(N3CCOCC3)cc2)nn1-c1ccccc1C(=O)O` [MLS000759946], the “Radiotracer Assay (%Activity)” value in assay [1] is recorded as 27%. Moreover, the IC50 in assay [2] is over 57 µM; in assay [3], 15.8 µM; in assay [4], over 57 µM; in assay [5] (setting [6]), 2.5 µM; in assay [5] (setting [7]), 14.1 µM.
Turning to `CCCSC1=N/C(=C\C=C\c2ccco2)C(=O)S1` [MLS000114057], the “Radiotracer Assay (%Activity)” value in assay [1] is recorded as 40%. For the same compound, the IC50 in assay [2] is over 57 µM; in assay [3], over 57 µM; in assay [4], over 57 µM; in assay [5] (setting [6]) it was 4 µM; in assay [5] (setting [7]), 17.8 µM.
For the compound `Nc1ccc2c(c1Cl)C(=O)c1ccc(N)c(Cl)c1C2=O` [MLS000737360], the “Radiotracer Assay (%Activity)” value in assay [1] was found to be 17%. For the same compound, the IC50 is over 57 µM in assay [2]; 7.9 µM in assay [3]; 6.3 µM in assay [4]; 8.9 µM in assay [5] (setting [6]); 6.3 µM in assay [5] (setting [7]).
`Cc1cc(C)c2nc(-c3ccco3)cc(C(=O)O)c2c1` [MLS000703171]: the “Radiotracer Assay (%Activity)” value in assay [1] turned out to be 23%. In addition, the IC50 in assay [2] was over 57 µM; in assay [3] it was over 57 µM; in assay [4], over 57 µM; in assay [5] (setting [6]), 7.1 µM; in assay [5] (setting [7]), 12.6 µM.
As for `O=C(CCc1n[nH]c(=O)[nH]c1=O)N/N=C/c1ccco1` [MLS000685551], the “Radiotracer Assay (%Activity)” value in assay [1] was 33%. In addition, the IC50 in assay [2] is over 57 µM; in assay [3], over 57 µM; in assay [4], over 57 µM; in assay [5] (setting [6]), 19.9 µM; in assay [5] (setting [7]), 12.6 µM.
As for `CCN(CC)c1ccc(C(=C2C=CC(=[N+](CC)Cc3cccc(S(=O)(=O)[O-])c3)C=C2)c2ccc(N(CC)Cc3cccc(S(=O)(=O)O)c3)cc2)cc1` [NCGC00166058], the “Radiotracer Assay (%Activity)” value in assay [1] worked out at 13.4%. For the same compound, the “Concentration response against EndoIV” value in assay [2] is on record as “complete concentration response curves”. Moreover, the IC50 in assay [2] was found to be 28.2 µM; in assay [3], 31.6 µM; in assay [4], 35.5 µM; in assay [5] (setting [6]), 31.6 µM; in assay [5] (setting [7]), 25.1 µM.
Consider `Cc1cc(C=O)c(C)n1-c1ccc(Cl)c(C(=O)O)c1` [MLS000676588], for which, in assay [1], the “Radiotracer Assay (%Activity)” value is recorded as 31%. For the same compound, the IC50 is over 57 µM in assay [2]; over 57 µM in assay [3]; over 57 µM in assay [4]; 5.6 µM in assay [5] (setting [6]); 8.9 µM in assay [5] (setting [7]).
Consider `O=c1cc(-c2ccc(O)cc2)oc2c(C3OCC(O)C(O)C3O)c(O)c(C3OC(CO)C(O)C(O)C3O)c(O)c12` (stereo not shown) [MLS000876755], for which the “Radiotracer Assay (%Activity)” value in assay [1] came out at 31%. The IC50 in assay [2] was over 57 µM; in assay [3] it was over 57 µM; in assay [4] it was over 57 µM; in assay [5] (setting [6]) it was 19.9 µM; in assay [5] (setting [7]), 4.5 µM.
In the case of `CCC(C)C(=O)OCC1(c2ccc(C)cc2OC(=O)C(C)C)CO1` (stereo not shown) [MLS000876981], the “Radiotracer Assay (%Activity)” value in assay [1] amounted to 36%. Besides, the IC50 in assay [2] was over 57 µM; in assay [3], over 57 µM; in assay [4], over 57 µM; in assay [5] (setting [6]), 8.9 µM; in assay [5] (setting [7]), 11.2 µM.
`O=C(c1cc(C(=O)c2ccco2)cc(C(=O)c2ccco2)c1)c1ccco1` [MLS000699310]: the “Radiotracer Assay (%Activity)” value in assay [1] worked out at 6%. In addition, the IC50 in assay [2] was over 57 µM; in assay [3], over 57 µM; in assay [4], over 57 µM; in assay [5] (setting [6]), 31.6 µM; in assay [5] (setting [7]), 5 µM.
Consider `CC(=O)c1ccc(NC(=O)c2ccc3nc(-c4ccco4)c(-c4ccco4)nc3c2)cc1` [MLS000534769], for which, in assay [1], the “Radiotracer Assay (%Activity)” value was 11%. Besides, the IC50 was 10 µM in assay [2]; over 57 µM in assay [3]; 8.9 µM in assay [4]; 19.9 µM in assay [5] (setting [6]); 4 µM in assay [5] (setting [7]).
In the case of `COc1cc(O)c2c(c1)oc(=O)c1c3cc(O)c(O)cc3oc21` [NCGC00163667], in assay [1], the “Radiotracer Assay (%Activity)” value worked out at 8.4%. Moreover, the IC50 was over 57 µM in assay [2]; over 57 µM in assay [3]; 10 µM in assay [4]; 10 µM in assay [5] (setting [6]); 4.4 µM in assay [5] (setting [7]).
Take `CC(=O)NC1=NC(=O)/C(=C/c2cc(C)n(-c3cccc(C(=O)O)c3)c2C)S1` [MLS000673948]: the “Radiotracer Assay (%Activity)” value in assay [1] was 30%. The IC50 in assay [2] was over 57 µM; in assay [3] it was over 57 µM; in assay [4], over 57 µM; in assay [5] (setting [6]), 3.5 µM; in assay [5] (setting [7]), 4.4 µM.
As for `O=C(O)CCCN1C(=O)/C(=C/C=C/c2ccco2)SC1=S` [MLS000778631], the “Radiotracer Assay (%Activity)” value in assay [1] was 41%. The IC50 was over 57 µM in assay [2]; over 57 µM in assay [3]; over 57 µM in assay [4]; 35.5 µM in assay [5] (setting [6]); 5 µM in assay [5] (setting [7]).
